Our source for the Michaelis-Menten enzyme kinetics and IC50 values is publication PMC9352307 (Biochemistry, 2022).

Assay [1] deals with T1, NADP^+-dependent malic enzyme 1 (ME1) (Homo sapiens, UniProt P48163).
T1 sequence (P48163 1-572): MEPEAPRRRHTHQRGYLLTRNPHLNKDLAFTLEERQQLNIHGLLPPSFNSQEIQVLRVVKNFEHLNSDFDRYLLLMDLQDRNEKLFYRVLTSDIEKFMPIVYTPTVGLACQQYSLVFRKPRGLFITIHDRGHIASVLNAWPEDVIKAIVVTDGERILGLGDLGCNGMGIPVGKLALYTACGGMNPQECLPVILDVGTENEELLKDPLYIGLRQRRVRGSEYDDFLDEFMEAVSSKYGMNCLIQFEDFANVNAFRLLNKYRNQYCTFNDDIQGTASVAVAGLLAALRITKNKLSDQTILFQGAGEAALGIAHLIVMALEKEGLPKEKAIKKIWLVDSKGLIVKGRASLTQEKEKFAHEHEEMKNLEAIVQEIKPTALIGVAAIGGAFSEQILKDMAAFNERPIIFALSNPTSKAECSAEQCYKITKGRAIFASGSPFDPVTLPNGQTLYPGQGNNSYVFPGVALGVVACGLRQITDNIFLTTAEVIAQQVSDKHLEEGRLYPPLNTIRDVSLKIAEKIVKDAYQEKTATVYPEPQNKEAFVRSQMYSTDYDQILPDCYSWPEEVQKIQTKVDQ
Briefly: Michaelis–Menten enzyme kinetics. Format: biochemical.

Assay [2] has as its target T1, NADP^+-dependent malic enzyme 1 (ME1). Briefly: X-ray crystal structure. Format: biochemical.

For `NC(=O)c1ccc[n+]([C@@H]2O[C@H](COP(=O)(O)OP(=O)(O)OC[C@H]3O[C@@H](n4cnc5c(N)ncnc54)[C@H](OP(=O)(O)O)[C@@H]3O)[C@@H](O)[C@H]2O)c1` [NADP^+], in assay [1], the Michaelis-Menten enzyme kinetics result is “enzyme kinetics were examined using various concentrations of malate or NADP^+”.

For orientation: IC50 means the concentration that inhibits the measured activity by half. `CCCc1nc2c(C)ccn(Cc3ccc4nc(-c5ccccc5-c5nnn[nH]5)sc4c3)c-2n1` [AS1134900, 6-[(7-methyl-2-propylimidazo[4,5-b]pyridin-4-yl)methyl]-2-[2-(1H-tetrazol-5-yl)phenyl]-1,3-benzothiazole] yielded a concentration for half-maximal inhibition (IC50) in assay [2] of 0.73 µM.

Consider `O=C(O)CC(O)C(=O)O` (stereo not drawn) [malate], for which the Michaelis-Menten enzyme kinetics result in assay [1] is on record as “Michaelis–Menten plot of ME1 activity in the presence of AS1134900 vs DL-malate”.
